Assay results as given in the supplement of paper PMC12463676, “Small-molecule dissolution of stress granules by redox modulation benefits ALS models” (Nature Chemical Biology, 2025).

Legend:
[1] = compound: NC(=O)CCCCC1CCSS1 [lipoamide]; assay: thermal stability z-score vs DMSO; higher = more thermally stabilized by treatment; conditions: HeLa, lipoamide concentration 100 µM
Procedure: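 Cellular thermal proteome profiling in HeLa cells. Cells were treated with 100 µM lipoamide for 1 h, with or without 1 mM arsenate for a further 1 h, then heated to ten temperatures (37-66.3 °C), and soluble protein was quantified by TMT mass spectrometry relative to 0.1% DMSO controls. The thermal stability score (sum of log2 fold changes minus the abundance score) was transformed to a z-score; mean of n = 3 experiments.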

[2] = compound: O=[As]([O-])(O)O.[K+] [potassium arsenate]; assay: as above; conditions: HeLa; arsenate concentration 1 mM
Procedure: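 Cellular thermal proteome profiling in HeLa cells treated with 1 mM arsenate for 1 h (DMSO pretreatment), heated to ten temperatures (37-66.3 °C). Soluble protein was quantified by TMT mass spectrometry relative to DMSO controls; the thermal stability score was transformed to a z-score; mean of n = 3 experiments.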

[3] = arsenate co-treatment: 1 mM arsenate 1 h
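Also: each temperature applied for 3 min, abundance score taken as mean log2 fold change at the two lowest temperatures, z-score obtained by mean subtraction and division by SD.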

Chain of UniProt Q92793 (Q92793 whole entry, looked up): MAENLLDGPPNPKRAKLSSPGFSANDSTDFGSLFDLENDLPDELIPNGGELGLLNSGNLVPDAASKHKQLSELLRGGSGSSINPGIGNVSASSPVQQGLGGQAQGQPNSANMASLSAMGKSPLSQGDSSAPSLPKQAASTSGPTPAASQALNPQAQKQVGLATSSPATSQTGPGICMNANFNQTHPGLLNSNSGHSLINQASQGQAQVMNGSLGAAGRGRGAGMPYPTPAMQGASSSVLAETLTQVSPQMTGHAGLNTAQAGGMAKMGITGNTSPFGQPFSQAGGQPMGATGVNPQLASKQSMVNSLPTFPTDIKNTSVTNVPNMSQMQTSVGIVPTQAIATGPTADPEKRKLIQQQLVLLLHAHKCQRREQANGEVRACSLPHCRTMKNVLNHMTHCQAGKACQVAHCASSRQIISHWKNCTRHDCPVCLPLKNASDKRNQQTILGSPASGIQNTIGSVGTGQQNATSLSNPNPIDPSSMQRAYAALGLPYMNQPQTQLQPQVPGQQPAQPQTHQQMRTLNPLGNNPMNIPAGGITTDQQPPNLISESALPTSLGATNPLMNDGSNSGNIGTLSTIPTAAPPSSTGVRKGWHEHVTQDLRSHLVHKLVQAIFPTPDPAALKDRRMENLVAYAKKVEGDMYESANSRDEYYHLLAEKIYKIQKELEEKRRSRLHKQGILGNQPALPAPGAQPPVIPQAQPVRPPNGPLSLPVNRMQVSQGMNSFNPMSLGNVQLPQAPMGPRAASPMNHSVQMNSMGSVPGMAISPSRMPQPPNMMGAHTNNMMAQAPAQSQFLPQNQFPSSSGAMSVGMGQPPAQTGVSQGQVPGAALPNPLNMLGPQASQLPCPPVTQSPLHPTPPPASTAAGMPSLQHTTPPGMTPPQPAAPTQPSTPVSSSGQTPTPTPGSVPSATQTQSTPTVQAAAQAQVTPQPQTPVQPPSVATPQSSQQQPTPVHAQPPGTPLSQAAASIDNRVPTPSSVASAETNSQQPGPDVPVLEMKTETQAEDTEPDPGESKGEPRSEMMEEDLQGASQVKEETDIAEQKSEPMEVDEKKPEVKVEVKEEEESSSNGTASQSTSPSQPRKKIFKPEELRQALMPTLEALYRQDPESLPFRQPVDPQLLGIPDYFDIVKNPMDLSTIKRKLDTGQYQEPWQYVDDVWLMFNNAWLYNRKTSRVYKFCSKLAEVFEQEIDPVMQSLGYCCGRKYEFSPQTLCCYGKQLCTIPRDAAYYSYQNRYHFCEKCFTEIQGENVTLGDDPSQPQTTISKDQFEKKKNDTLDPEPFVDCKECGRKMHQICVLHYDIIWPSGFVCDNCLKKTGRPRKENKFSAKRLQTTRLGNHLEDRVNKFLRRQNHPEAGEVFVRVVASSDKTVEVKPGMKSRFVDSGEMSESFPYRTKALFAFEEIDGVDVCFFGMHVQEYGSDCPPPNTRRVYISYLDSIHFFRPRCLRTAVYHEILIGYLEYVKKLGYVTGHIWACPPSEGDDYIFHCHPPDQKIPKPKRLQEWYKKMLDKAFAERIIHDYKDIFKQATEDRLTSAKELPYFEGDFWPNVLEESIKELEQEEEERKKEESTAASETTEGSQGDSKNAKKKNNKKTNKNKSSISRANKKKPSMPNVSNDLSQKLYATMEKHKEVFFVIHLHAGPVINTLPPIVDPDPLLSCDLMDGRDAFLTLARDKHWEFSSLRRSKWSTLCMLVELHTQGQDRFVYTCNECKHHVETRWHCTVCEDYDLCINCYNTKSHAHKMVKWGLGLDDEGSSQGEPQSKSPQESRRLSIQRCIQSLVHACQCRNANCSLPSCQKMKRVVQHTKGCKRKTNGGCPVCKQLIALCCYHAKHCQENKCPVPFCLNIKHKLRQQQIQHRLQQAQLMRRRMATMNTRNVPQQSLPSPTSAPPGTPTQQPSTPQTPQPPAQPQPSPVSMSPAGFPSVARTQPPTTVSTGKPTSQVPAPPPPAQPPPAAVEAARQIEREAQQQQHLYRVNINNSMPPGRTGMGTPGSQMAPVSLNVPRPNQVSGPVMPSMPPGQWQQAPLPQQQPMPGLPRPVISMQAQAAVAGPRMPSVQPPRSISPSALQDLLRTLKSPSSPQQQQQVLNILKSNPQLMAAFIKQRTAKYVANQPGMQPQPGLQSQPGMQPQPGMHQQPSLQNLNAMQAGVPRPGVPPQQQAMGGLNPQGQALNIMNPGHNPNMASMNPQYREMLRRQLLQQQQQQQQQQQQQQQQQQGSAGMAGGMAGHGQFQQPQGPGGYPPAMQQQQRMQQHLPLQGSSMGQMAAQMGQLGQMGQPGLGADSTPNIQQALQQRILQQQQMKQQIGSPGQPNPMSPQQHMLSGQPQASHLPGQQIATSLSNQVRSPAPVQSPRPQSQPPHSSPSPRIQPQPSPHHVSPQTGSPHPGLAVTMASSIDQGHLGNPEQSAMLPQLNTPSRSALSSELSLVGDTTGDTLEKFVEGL
Chain of UniProt Q9H7Z3 (Q9H7Z3 whole entry): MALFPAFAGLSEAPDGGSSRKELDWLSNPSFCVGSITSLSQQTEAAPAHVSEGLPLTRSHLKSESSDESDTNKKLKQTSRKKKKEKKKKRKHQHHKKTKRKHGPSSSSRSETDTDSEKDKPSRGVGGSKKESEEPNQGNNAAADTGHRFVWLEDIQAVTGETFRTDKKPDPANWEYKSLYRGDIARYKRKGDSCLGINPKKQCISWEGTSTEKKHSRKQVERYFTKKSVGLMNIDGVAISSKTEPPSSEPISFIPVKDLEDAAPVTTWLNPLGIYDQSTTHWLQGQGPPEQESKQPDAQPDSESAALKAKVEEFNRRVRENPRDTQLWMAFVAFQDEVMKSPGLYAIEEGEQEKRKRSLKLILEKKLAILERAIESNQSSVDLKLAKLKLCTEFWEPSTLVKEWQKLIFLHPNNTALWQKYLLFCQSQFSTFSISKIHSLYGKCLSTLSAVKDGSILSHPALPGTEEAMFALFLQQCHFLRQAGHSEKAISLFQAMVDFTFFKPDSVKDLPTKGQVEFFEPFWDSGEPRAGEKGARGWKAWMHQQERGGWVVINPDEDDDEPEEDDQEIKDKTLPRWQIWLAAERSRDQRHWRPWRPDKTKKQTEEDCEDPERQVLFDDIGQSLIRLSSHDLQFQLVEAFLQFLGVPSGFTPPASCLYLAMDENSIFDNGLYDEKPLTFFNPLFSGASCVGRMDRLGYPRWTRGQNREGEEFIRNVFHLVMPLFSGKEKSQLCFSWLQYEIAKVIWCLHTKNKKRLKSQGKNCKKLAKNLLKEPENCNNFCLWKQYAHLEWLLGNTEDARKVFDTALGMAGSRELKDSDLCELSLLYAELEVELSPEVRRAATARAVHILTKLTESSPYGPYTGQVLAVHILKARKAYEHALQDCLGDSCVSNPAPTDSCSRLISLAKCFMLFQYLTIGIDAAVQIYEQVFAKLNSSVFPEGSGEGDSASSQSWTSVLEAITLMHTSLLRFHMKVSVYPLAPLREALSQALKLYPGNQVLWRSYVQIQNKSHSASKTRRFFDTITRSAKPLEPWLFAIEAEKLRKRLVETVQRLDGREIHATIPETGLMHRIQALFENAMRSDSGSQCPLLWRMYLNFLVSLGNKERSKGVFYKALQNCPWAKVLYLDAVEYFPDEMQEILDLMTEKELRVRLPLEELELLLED
Chain of UniProt Q9BPX3 (Q9BPX3 whole entry, looked up): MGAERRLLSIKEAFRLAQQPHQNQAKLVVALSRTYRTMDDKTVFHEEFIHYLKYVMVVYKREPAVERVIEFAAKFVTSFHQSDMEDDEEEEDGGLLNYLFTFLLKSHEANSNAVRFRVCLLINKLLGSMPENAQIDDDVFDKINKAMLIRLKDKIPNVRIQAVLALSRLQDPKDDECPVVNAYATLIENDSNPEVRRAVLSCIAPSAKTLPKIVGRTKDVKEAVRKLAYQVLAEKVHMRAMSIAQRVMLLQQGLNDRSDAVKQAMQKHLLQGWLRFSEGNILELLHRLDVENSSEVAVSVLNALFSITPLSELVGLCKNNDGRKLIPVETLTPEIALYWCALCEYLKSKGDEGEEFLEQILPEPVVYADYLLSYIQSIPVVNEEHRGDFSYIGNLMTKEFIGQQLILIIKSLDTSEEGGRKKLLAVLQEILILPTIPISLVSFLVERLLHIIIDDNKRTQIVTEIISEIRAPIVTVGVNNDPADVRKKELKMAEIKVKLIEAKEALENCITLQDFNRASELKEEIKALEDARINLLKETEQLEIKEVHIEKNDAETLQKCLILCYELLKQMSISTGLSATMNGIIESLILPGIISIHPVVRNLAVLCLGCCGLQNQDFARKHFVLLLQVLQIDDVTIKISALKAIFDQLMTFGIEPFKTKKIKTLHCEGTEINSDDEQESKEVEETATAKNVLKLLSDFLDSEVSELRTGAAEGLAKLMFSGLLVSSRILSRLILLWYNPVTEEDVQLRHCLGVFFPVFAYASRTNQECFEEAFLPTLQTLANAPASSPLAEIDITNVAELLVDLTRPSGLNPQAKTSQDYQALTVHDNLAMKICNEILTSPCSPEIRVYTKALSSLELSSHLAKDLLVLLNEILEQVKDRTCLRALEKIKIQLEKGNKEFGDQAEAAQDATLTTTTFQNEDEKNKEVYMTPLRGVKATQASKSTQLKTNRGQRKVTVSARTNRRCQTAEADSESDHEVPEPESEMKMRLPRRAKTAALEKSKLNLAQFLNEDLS
Chain of UniProt Q9Y605 (Q9Y605 whole entry): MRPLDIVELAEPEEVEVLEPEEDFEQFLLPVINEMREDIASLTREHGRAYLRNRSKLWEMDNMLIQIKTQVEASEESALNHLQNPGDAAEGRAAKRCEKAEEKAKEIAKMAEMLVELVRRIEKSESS
Chain of UniProt Q96GS4 (Q96GS4 whole entry): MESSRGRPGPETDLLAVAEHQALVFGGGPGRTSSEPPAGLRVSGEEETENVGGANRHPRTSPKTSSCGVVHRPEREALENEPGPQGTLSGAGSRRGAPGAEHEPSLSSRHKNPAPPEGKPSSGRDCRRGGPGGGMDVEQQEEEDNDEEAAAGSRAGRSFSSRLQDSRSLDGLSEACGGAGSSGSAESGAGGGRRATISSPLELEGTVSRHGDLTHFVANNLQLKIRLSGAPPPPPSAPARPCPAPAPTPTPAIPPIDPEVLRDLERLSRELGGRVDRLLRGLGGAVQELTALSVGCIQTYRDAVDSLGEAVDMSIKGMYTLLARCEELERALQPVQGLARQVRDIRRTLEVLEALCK

Target | thermal stability z-score [1, 3] | thermal stability z-score ([1]; arsenate co-treatment: none) | thermal stability z-score [2]
NRDE2 (UniProt Q9H7Z3) | 0.0849 | 0.0451 | -0.184
TNKS1BP1 (UniProt Q9C0C2) | -0.0132 | 0.146 | 3.12
PRDX6 (UniProt P30041) | 0.00439 | 0.281 | 0.144
PRDX2 (UniProt P32119) | 0.0679 | 0.162 | -0.431
NUP50 (UniProt Q9UKX7) | 1.4 | 1.06 | 0.502
RCOR1 (UniProt Q9UKL0) | 1.01 | 0.999 | -0.739
FAHD1 (UniProt Q6P587) | 0.565 | 0.339 | 0.21
EML2 (UniProt O95834) | 1.13 | 0.223 | -0.718
IRF2BP2 (UniProt Q7Z5L9) | 0.371 | -0.0192 | -2.51
TBC1D17 (UniProt Q9HA65) | -0.114 | -0.107 | -0.0293
CREBBP (UniProt Q92793) | 0.397 | -0.0649 | -0.693
SAR1B (UniProt Q9Y6B6) | 0.0537 | 0.376 | 0.0901
MTDH (UniProt Q86UE4) | -0.531 | -0.503 | -1.35
RELB (UniProt Q01201) | -0.128 | -0.07 | 0.048
POFUT1 (UniProt Q9H488) | -3.78 | -3.17 | 1.06
LDLR (UniProt P01130) | 0.0821 | -0.206 | -0.0946
PARP4 (UniProt Q9UKK3) | 0.157 | -0.044 | 0.742
LRP6 (UniProt O75581) | -2.59 | -1.1 | -0.531

Target | thermal stability z-score [1, 3] | thermal stability z-score ([1]; arsenate co-treatment: none) | thermal stability z-score [2]
MPI (UniProt P34949) | -0.333 | -0.379 | 0.187
ITCH (UniProt Q96J02) | -0.451 | -0.173 | -0.386
ZKSCAN1 (UniProt P17029) | -0.0617 | 0.0599 | 0.128
PAICS (UniProt P22234) | 0.653 | 0.549 | -0.0525
RFC1 (UniProt P35251) | -0.248 | 1.77 | -0.0625
MRFAP1 (UniProt Q9Y605) | 0.86 | -0.215 | -0.23
KHSRP (UniProt Q92945) | 0.21 | 0.161 | 0.486
TRAPPC8 (UniProt Q9Y2L5) | 0.257 | 0.348 | 0.311
C17ORF59 (UniProt Q96GS4) | 0.136 | -0.131 | -0.163
HIBCH (UniProt Q6NVY1) | 0.0376 | -0.171 | -0.476
GRB2 (UniProt P62993) | 0.496 | 0.364 | 0.0852
CALCOCO2 (UniProt Q13137) | 0.172 | 0.108 | 0.743
CIC (UniProt Q96RK0) | 0.0454 | -0.131 | -0.261
NCAPG (UniProt Q9BPX3) | -0.382 | 0.295 | 0.883
UQCRFS1 (UniProt P47985) | 0.00262 | 0.279 | -2.17
HEXB (UniProt P07686) | -0.421 | -0.254 | 0.149
MAT2B (UniProt Q9NZL9) | -0.368 | -0.144 | -0.705
